From PMC9954146, “Anti-Leukaemic Activity of Rilpivirine Is Mediated by Aurora A Kinase Inhibition” (Cancers, 2023)

Assays:
Experiment in all cases: Kinase panel
Format in all cases: biochemical
Details in all cases: read-out: % Residual Activity
[1] = molecular target: PIP4K2a(h) (Homo sapiens, UniProt P48426)
Procedure, shortened: (§1)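 Steps: profile rilpivirine against a broad kinase panel; determine IC50 by radioactive assay using ATP at the kinase-specific Km; convert IC50 to Ki by the Cheng–Prusoff relationship.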

[2] = molecular target: T1, Ron(h) (Homo sapiens, UniProt Q04912)
T1 construct: purchased Eurofins (KinaseProfiler)
T1 sequence (Q04912 25-1400): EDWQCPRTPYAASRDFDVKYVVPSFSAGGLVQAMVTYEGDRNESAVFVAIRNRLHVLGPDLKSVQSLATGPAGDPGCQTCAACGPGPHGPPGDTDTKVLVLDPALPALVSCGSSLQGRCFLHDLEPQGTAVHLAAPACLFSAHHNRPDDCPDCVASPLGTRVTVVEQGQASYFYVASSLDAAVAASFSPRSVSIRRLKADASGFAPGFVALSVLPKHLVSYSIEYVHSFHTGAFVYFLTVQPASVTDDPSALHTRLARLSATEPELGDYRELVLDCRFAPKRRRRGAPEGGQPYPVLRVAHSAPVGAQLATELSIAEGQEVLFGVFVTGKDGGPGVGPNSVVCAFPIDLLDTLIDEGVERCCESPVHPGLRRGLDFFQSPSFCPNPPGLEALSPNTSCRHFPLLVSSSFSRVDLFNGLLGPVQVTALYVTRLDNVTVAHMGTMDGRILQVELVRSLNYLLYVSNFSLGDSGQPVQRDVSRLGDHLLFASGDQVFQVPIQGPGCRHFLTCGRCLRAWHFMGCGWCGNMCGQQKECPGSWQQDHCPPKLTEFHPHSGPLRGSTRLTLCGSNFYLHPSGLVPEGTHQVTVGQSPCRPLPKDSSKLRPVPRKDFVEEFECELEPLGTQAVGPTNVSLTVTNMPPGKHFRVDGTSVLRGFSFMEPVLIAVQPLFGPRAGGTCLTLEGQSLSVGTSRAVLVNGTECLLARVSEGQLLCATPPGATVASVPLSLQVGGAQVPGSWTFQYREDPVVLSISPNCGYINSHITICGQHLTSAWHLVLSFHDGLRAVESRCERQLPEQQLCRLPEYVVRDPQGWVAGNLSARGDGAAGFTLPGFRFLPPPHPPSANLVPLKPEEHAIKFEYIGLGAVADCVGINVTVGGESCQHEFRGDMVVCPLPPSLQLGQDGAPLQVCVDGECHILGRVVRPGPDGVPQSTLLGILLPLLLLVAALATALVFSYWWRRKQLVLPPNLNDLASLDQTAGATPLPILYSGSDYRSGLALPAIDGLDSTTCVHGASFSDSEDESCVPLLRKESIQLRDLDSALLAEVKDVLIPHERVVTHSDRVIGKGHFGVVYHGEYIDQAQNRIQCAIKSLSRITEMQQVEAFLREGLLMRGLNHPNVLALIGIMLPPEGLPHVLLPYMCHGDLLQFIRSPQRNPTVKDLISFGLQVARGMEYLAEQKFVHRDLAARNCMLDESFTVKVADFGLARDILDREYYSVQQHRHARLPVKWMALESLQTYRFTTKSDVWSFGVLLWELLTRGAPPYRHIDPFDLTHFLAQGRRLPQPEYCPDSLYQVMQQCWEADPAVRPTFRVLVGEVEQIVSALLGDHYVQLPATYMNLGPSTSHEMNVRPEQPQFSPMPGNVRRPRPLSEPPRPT
Procedure, shortened: as §1

[3] = molecular target: T2, PKD2(h) (Homo sapiens, UniProt Q9BZL6)
T2 construct: purchased Eurofins (KinaseProfiler)
Procedure, shortened: as §1

[4] = molecular target: T3, MARK1(h) (Homo sapiens, UniProt Q9P0L2)
T3 construct: purchased Eurofins (KinaseProfiler)
Procedure, shortened: as §1

[5] = molecular target: T4, Ret (V804L)(h) (Homo sapiens, UniProt P07949, V804L)
T4 construct: purchased Eurofins (KinaseProfiler)
Procedure, shortened: as §1

[6] = molecular target: T5, CLK1(h) (Homo sapiens, UniProt P49759)
T5 construct: purchased Eurofins (KinaseProfiler)
T5 sequence (P49759 whole entry): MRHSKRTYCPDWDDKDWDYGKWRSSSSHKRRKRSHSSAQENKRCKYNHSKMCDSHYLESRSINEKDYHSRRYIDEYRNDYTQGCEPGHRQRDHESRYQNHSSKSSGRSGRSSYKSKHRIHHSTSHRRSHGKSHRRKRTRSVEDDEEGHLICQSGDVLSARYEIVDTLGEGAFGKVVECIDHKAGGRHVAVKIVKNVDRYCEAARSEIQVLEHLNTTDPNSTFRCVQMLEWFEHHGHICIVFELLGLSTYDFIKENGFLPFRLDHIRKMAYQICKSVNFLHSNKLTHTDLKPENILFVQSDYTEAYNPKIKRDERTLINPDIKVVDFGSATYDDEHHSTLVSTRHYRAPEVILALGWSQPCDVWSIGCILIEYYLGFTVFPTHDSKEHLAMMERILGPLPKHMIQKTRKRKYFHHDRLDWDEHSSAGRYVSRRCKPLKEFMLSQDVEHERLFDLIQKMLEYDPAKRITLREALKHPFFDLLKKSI
Procedure, shortened: as §1

[7] = molecular target: T6, PKCγ(h) (Homo sapiens, UniProt P05129)
T6 construct: purchased Eurofins (KinaseProfiler)
Procedure, shortened: as §1

[8] = molecular target: T7, STK33(h) (Homo sapiens, UniProt Q9BYT3)
T7 construct: purchased Eurofins (KinaseProfiler)
Procedure, shortened: as §1

[9] = molecular target: T8, HRI(h) (Homo sapiens, UniProt Q9BQI3)
T8 construct: purchased Eurofins (KinaseProfiler)
Procedure, shortened: as §1

[10] = molecular target: T9, ATR/ATRIP(h) (Homo sapiens, UniProt Q13535)
T9 construct: purchased Eurofins (KinaseProfiler)
Procedure, shortened: as §1

[11] = molecular target: T10, IKKβ(h) (Homo sapiens, UniProt O14920)
T10 construct: purchased Eurofins (KinaseProfiler)
Procedure, shortened: as §1

[12] = molecular target: T11, STK16(h) (Homo sapiens, UniProt O75716)
T11 construct: purchased Eurofins (KinaseProfiler)
Procedure, shortened: as §1

[13] = molecular target: T12, MRCKα(h) (Homo sapiens, UniProt Q5VT25)
T12 construct: purchased Eurofins (KinaseProfiler)
Procedure, shortened: as §1

[14] = molecular target: T13, PKCθ(h) (Homo sapiens, UniProt Q04759)
T13 construct: purchased Eurofins (KinaseProfiler)
Procedure, shortened: as §1

[15] = molecular target: T14, DYRK1A(h) (Homo sapiens, UniProt Q13627)
T14 construct: purchased Eurofins (KinaseProfiler)
Procedure, shortened: as §1

[16] = molecular target: T15, Aurora-A(h) (Homo sapiens, UniProt O14965)
T15 construct: purchased Eurofins (KinaseProfiler)
Procedure, shortened: as §1

[17] = molecular target: T16, JNK3(h) (Homo sapiens, UniProt P53779)
T16 construct: purchased Eurofins (KinaseProfiler)
Procedure, shortened: as §1

[18] = molecular target: T17, HIPK4(h) (Homo sapiens, UniProt Q8NE63)
T17 construct: purchased Eurofins (KinaseProfiler)
Procedure, shortened: as §1

[19] = molecular target: PI3 Kinase (p110a/p65a)(h) (Homo sapiens, UniProt P42336)
Procedure, shortened: as §1

[20] = molecular target: T18, CDK9/cyclin T1(h) (Homo sapiens, UniProt P50750)
T18 construct: purchased Eurofins (KinaseProfiler)
Procedure, shortened: as §1

[21] = molecular target: T19, MLK2(h) (Homo sapiens, UniProt Q02779)
T19 construct: purchased Eurofins (KinaseProfiler)
T19 sequence (Q02779 whole entry): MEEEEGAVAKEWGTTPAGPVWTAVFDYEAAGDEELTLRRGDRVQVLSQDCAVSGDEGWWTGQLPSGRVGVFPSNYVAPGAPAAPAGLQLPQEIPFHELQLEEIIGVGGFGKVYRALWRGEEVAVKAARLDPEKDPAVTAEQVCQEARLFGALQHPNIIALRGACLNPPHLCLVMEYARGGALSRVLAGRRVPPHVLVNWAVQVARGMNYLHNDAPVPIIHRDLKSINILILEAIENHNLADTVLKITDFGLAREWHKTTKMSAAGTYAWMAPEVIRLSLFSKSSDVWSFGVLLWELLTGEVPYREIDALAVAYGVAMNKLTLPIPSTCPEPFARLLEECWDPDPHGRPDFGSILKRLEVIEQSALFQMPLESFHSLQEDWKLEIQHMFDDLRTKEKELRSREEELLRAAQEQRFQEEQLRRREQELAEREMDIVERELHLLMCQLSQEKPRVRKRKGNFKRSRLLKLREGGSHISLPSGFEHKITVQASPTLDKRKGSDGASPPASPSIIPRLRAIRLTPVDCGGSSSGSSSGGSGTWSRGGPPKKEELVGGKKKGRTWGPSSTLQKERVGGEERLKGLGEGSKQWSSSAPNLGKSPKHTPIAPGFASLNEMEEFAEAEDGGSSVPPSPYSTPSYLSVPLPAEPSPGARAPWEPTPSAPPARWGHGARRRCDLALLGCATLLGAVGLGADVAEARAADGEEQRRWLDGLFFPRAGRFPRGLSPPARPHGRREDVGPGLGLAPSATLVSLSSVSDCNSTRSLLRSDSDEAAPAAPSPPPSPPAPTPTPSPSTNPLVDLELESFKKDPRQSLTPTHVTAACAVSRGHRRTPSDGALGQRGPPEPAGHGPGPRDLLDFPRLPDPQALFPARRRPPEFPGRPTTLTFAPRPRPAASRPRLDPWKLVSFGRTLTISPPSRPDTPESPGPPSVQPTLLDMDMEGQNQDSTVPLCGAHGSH
Procedure, shortened: as §1

[22] = molecular target: T20, TGFBR2(h) (Homo sapiens, UniProt P37173)
T20 construct: purchased Eurofins (KinaseProfiler)
Procedure, shortened: as §1

[23] = molecular target: T21, Arg(m) (Mus musculus, UniProt Q4JIM5)
T21 construct: purchased Eurofins (KinaseProfiler)
T21 sequence (Q4JIM5 2-1182 limits assumed): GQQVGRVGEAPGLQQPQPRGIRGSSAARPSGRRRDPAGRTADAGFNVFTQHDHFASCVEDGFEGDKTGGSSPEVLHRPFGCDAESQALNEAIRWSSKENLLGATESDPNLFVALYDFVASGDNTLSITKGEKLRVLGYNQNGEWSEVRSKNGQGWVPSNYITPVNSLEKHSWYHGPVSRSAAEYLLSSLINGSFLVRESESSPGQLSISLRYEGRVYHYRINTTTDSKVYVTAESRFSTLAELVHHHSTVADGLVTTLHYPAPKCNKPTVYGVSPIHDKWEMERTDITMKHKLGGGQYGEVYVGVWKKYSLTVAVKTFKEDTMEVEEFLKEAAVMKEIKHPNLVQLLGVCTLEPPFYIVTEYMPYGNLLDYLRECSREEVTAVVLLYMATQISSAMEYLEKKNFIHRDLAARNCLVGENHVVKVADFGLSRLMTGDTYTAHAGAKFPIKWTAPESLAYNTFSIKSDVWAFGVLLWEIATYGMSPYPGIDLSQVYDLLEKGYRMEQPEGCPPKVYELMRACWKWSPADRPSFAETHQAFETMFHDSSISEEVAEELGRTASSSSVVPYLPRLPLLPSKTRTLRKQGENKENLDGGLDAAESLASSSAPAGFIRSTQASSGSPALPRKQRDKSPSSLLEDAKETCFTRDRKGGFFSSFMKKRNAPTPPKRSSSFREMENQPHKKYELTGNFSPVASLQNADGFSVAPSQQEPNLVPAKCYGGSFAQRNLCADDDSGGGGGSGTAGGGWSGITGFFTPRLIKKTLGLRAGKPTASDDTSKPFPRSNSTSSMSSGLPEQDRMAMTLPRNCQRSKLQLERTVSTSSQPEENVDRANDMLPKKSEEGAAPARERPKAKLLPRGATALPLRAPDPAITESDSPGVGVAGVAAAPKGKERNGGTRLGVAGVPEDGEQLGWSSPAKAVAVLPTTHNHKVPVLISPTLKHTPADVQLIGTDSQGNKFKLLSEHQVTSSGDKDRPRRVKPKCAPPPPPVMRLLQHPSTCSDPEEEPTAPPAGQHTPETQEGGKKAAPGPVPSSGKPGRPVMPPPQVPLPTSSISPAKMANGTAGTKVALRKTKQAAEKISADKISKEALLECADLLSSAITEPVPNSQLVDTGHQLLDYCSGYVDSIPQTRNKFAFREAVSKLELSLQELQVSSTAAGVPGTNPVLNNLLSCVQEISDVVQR
Procedure, shortened: as §1

[24] = molecular target: T22, LIMK1(h) (Homo sapiens, UniProt P53667)
T22 construct: purchased Eurofins (KinaseProfiler)
Procedure, shortened: as §1

[25] = molecular target: T23, PDK1(h) (Homo sapiens, UniProt O15530)
T23 construct: purchased Eurofins (KinaseProfiler)
Procedure, shortened: as §1

[26] = molecular target: T24, PKCι(h) (Homo sapiens, UniProt P41743)
T24 construct: purchased Eurofins (KinaseProfiler)
Procedure, shortened: as §1

[27] = molecular target: T25, GCN2(h) (Homo sapiens, UniProt Q9P2K8)
T25 construct: purchased Eurofins (KinaseProfiler)
Procedure, shortened: as §1

[28] = molecular target: T26, PKBβ(h) (Homo sapiens, UniProt P31751)
T26 construct: purchased Eurofins (KinaseProfiler)
Procedure, shortened: as §1

[29] = molecular target: T27, HIPK1(h) (Homo sapiens, UniProt Q86Z02)
T27 construct: purchased Eurofins (KinaseProfiler)
Procedure, shortened: as §1

[30] = molecular target: T28, CLK3(h) (Homo sapiens, UniProt P49761)
T28 construct: purchased Eurofins (KinaseProfiler)
Procedure, shortened: as §1

[31] = molecular target: T29, Fer(h) (Homo sapiens, UniProt P16591)
T29 construct: purchased Eurofins (KinaseProfiler)
Procedure, shortened: as §1

[32] = molecular target: T30, SNRK(h) (Homo sapiens, UniProt Q9NRH2)
T30 construct: purchased Eurofins (KinaseProfiler)
Procedure, shortened: as §1

[33] = molecular target: T31, TTK(h) (Homo sapiens, UniProt P33981)
T31 construct: purchased Eurofins (KinaseProfiler)
Procedure, shortened: as §1

[34] = molecular target: T32, mTOR(h) (Homo sapiens, UniProt P42345)
T32 construct: purchased Eurofins (KinaseProfiler)
Procedure, shortened: as §1

[35] = molecular target: T33, TGFBR1(h) (Homo sapiens, UniProt P36897)
T33 construct: purchased Eurofins (KinaseProfiler)
T33 sequence (P36897 34-503): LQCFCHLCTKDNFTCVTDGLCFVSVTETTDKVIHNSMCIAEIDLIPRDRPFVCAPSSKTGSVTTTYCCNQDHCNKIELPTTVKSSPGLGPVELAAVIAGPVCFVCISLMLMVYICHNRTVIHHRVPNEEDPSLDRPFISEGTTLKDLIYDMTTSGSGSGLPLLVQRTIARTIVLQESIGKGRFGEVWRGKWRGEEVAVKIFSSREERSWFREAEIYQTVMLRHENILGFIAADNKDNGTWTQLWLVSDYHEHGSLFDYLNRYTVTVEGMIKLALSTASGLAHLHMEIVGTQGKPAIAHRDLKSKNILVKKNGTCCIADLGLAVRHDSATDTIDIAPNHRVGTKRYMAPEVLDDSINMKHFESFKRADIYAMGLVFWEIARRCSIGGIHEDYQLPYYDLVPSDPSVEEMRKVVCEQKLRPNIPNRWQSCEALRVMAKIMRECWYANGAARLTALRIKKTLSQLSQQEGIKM
Procedure, shortened: as §1

[36] = molecular target: PI3 Kinase (p110a(E545K)/p85a)(h) (Homo sapiens, UniProt P42336, E545K)
Procedure, shortened: as §1

[37] = molecular target: T34, A-Raf(h) (Homo sapiens, UniProt P10398)
T34 construct: purchased Eurofins (KinaseProfiler)
Procedure, shortened: as §1

[38] = molecular target: T35, MuSK(h) (Homo sapiens, UniProt O15146)
T35 construct: purchased Eurofins (KinaseProfiler)
Procedure, shortened: as §1

[39] = molecular target: T36, CK2α1(h) (Homo sapiens, UniProt P68400)
T36 construct: purchased Eurofins (KinaseProfiler)
T36 sequence (P68400 whole entry): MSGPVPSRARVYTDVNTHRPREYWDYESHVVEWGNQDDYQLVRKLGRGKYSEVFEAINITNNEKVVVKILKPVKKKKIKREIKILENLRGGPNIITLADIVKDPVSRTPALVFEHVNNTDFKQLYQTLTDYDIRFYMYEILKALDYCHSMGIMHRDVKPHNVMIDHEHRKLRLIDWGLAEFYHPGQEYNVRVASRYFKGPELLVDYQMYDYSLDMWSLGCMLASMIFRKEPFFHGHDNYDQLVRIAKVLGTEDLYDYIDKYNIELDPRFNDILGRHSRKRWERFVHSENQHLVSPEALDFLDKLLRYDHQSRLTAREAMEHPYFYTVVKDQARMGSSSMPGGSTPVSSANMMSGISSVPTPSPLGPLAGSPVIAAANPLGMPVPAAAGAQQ
Procedure, shortened: as §1

## Cc1cc(/C=C/C#N)cc(C)c1Nc1ccnc(Nc2ccc(C#N)cc2)n1 [rilpivirine, (E)-4-((4-((4-(2-cyanoethenyl)-2,6-dimethylphenyl)amino)pyrimidin-2-yl)amino)benzonitrile]
[1]
  remaining activity at 1 µM: 103%
[2]
  remaining activity at 1 µM: 85%
[3]
  remaining activity at 1 µM: 115%
[4]
  remaining activity at 1 µM: 82%
[5]
  remaining activity at 1 µM: 91%
[6]
  remaining activity at 1 µM: 48%
[7]
  remaining activity at 1 µM: 103%
[8]
  remaining activity at 1 µM: 102%
[9]
  remaining activity at 1 µM: 91%
[10]
  remaining activity at 1 µM: 117%
[11]
  remaining activity at 1 µM: 95%
[12]
  remaining activity at 1 µM: 58%
[13]
  remaining activity at 1 µM: 86%
[14]
  remaining activity at 1 µM: 66%
[15]
  remaining activity at 1 µM: 56%
[16]
  remaining activity at 1 µM: 14%
[17]
  remaining activity at 1 µM: 100%
[18]
  remaining activity at 1 µM: 87%
[19]
  remaining activity at 1 µM: 93%
[20]
  remaining activity at 1 µM: 81%
[21]
  remaining activity at 1 µM: 85%
[22]
  remaining activity at 1 µM: 94%
[23]
  remaining activity at 1 µM: 48%
[24]
  remaining activity at 1 µM: 47%
[25]
  remaining activity at 1 µM: 85%
[26]
  remaining activity at 1 µM: 99%
[27]
  remaining activity at 1 µM: 93%
[28]
  remaining activity at 1 µM: 90%
[29]
  remaining activity at 1 µM: 97%
[30]
  remaining activity at 1 µM: 93%
[31]
  remaining activity at 1 µM: 91%
[32]
  remaining activity at 1 µM: 104%
[33]
  remaining activity at 1 µM: 71%
[34]
  remaining activity at 1 µM: 97%
[35]
  remaining activity at 1 µM: 103%
[36]
  remaining activity at 1 µM: 98%
[37]
  remaining activity at 1 µM: 101%
[38]
  remaining activity at 1 µM: 96%
[39]
  remaining activity at 1 µM: 101%
